Our source for the melting point values is patent US20040072842A1 (published 2004).

In turn, `O=C(COCc1ccccc1)N1CCN(c2ccc(N3C[C@H](CNC(=S)C(F)F)OC3=O)cc2)CC1` returned a melting point of 166 to 168 °C.

Consider `O=C(CO)N1CCC(c2ccc(N3C[C@H](CNC(=S)C(F)F)OC3=O)cc2F)CC1`, for which the melting point is 151 to 152 °C.
